Laboratory results published in patent publication US5936120A, “Deoxygossylic compounds” (University of New Mexico, priority 1997, dated 1999).
Entries after “also recorded” stand apart in the source; their conditions may differ.

Key:
HT46c (HeLaT4+) cells = assay: Cytotoxicity in the anti-HIV assay: detectable changes in cell morphology or loss of monolayer adherence to the culture plate; format: cell-based; conditions: for cytotoxicity: in words
Experimental: (§1) 1,1'-bisdeoxygossypol (BDG), 1,1'-bisdeoxygossylic acid (BDGA), 8-deoxyhemigossypol (DHG) and 8-deoxyhemigossylic acid (DHGA) were synthesized and tested for their ability to inhibit the replication of HIV in vitro.
(§2) After treatment of the wells with DEAE-dextran, stock virus was added at a concentration that produces 100 -200 foci/well on day 3 in positive control wells. Test compounds were added, and plates incubated for 3 days at 37° C., 5% CO2. Monolayers were fixed with methanol and wells analyzed with a focal immunoassay (FIA). The primary reagent used in the FIA was a polyclonal antibody preparation of sera from AIDS patients. The secondary reagent was a goat anti-human IgG antibody tagged with horseradish peroxidase. The substrate was 3-amino-9-ethylcarbazole in sodium acetate buffer with hydrogen peroxide. Each compound was tested at concentrations of 0.01, 0.1, 1.0, 5.0 and 20 μM. GIL was tested as a standard for comparison.

[1] = as above; format: cell-based; conditions: human, ht46c cells; below threshold = no detectable changes in cell morphology or loss of monolayer adherence
Experimental: as §1, §2

[2] = tested on: H9/HIV-IIIB in HT46c cells; assay: Anti-HIV assay in vitro: inhibition of HIV replication, focal immunoassay (reduction in foci); format: cell-based, HIV-1; conditions: for anti-HIV activity: in words, tested at 0.01, 0.1, 1.0, 5.0 and 20 μM; for reduction in foci at 5 μM: GIL compared with BDGA
Experimental: 1,1'-bisdeoxygossypol (BDG), 1,1'-bisdeoxygossylic acid (BDGA), 8-deoxyhemigossypol (DHG) and 8-deoxyhemigossylic acid (DHGA) were synthesized and tested for their ability to inhibit the replication of HIV in vitro. The EC50 for BDGA was <1 μM and its threshold cytotoxicity was approximately 20 μM. […] Like BDGA, the Ec50 for GIL was <1 μM. […] BDG, on the other hand, was ineffective at 1 μM and destroyed >80% of the cell monolayer at 5 μM.
as §2, with “The anti-HIV assay used was based on a published procedure (J.Virol. 62:3779-3788, 1988) using HT46c (HeLaT4+) cells as host cells for the H9/HIV-III8 strain of the HIV-1 virus. The cells were seeded into 6-well plates, 5×10^4 cells/well, in RPMI 1640 with 10% FBS and allowed to attach overnight. After” for “After”

HIV = conditions: previously found, in vitro; cited from earlier work
[3] = previously shown in similar assays (Pharmacol.Res.); cited from earlier work

Row | SMILES | cytotoxicity (HT46c (HeLaT4+) cells) | anti-HIV activity [2] | toxicity at 5.0 μM (HT46c (HeLaT4+) cells) | reduction in foci at 5 μM [2] | also measured
1 | Cc1ccc2c(C=O)c(O)c(O)c(C(C)C)c2c1 [DHG, 2,3-dihydroxy-6-methyl-4-(1-methylethyl)-1-naphthaldehyde] | more cytotoxic | some anti-HIV activity; also recorded: less active | – | – | MCC [1]: 54 µM
2 | Cc1ccc2c(C(=O)O)c(O)c(O)c(C(C)C)c2c1 [DHGA, 2,3-dihydroxy-6-methyl-4-(1-methylethyl)-1-naphthoic Acid] | very low cytotoxicity | ineffective against HIV | – | – | effect on cell morphology at 20 μM (HT46c (HeLaT4+) cells; even at 20 μM): no observable effect on viral replication or cell morphology; effect on viral replication at 20 μM ([2]; even at 20 μM): no observable effect on viral replication
3 | Cc1cc2c(C(C)C)c(O)c(O)c3c2c(c1-c1c(C)cc2c(C(C)C)c(O)c(O)c4c2c1OC4=N)OC3=N [GIL, gossylic iminolactone] | – | – | No toxicity was noted | same reduction in foci | anti-HIV activity relative to gossypol (HIV): more active; also recorded: more effective than gossypol; cytotoxicity relative to gossypol [3]: less cytotoxic than gossypol
4 | Cc1cc2c(C(C)C)c(O)c(O)c(C=O)c2cc1-c1cc2c(C=O)c(O)c(O)c(C(C)C)c2cc1C [BDG, 6,6',7,7'-Tetrahydroxy-3,3'-dimethyl-5,5'-bis(1-methylethyl)[2,2'-binaphthalene]-8,8'-dicarboxaldehyde] | much more cytotoxic than BDGA | less effective against HIV | – | – | destruction of the cell monolayer at 5 μM (HT46c (HeLaT4+) cells; 5 μM): > 80%; anti-HIV activity at 1 μM ([2]; 1 μM): ineffective
5 | Cc1cc2c(C(C)C)c(O)c(O)c(C(=O)O)c2cc1-c1cc2c(C(=O)O)c(O)c(O)c(C(C)C)c2cc1C [BDGA, 6,6',7,7'-Tetrahydroxy-3,3'-dimethyl-5,5'-bis(1-methylethyl)[2,2'-binaphthalene]-8,8'-dicarboxylic Acid] | – | approximately as effective as GIL | No toxicity was noted | same reduction in foci | monolayer destruction at 20 μM (HT46c (HeLaT4+) cells; 20 μM): Some signs of monolayer destruction
